Consider 1 compound from PMC7004151, “Synthesis and Structure‐Activity Relationships of N‐(4‐Benzamidino)‐Oxazolidinones: Potent and Selective Inhibitors of Kallikrein‐Related Peptidase 6” (Chemmedchem, 2019).

A short description of one data set: in vitro. Conditions: female, CD1, mouse, plasma.
The next data set concerns the target KLK4 (Homo sapiens, UniProt Q9Y5K2). The experiment in a line: KLK4 inhibition (selectivity). Particulars: read-out: KLK4 pIC50 (converted). Format: biochemical. The source says:
Table 3 Activity of synthesized inhibitors against KLK6 and related proteases. | column: KLK4^a

Another data set deals with T1, KLK7 (Homo sapiens, UniProt P49862).
T1 construct: purchased 2B scientific
T1 sequence (P49862 30-253, species assumed): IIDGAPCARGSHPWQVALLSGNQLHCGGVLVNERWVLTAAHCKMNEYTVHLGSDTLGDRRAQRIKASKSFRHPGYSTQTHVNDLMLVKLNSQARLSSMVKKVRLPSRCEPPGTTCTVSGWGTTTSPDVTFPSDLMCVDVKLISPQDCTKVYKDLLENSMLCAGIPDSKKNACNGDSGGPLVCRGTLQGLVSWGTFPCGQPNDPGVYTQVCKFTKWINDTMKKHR
The experiment in a line: KLK7 enzyme inhibition assay. Particulars: read-out: KLK7 pIC50 (converted). It is filed as biochemical. Here is the method:
Enzyme inhibition assays: All chemicals were purchased from Sigma Aldrich (Gillingham, UK) unless otherwise stated. All experiments were conducted in 384 well black, low volume microplates (Greiner 784076) with a final volume of 20 μL and compounds were dispensed into assay plates using an ECHO 550 acoustic dispenser (Labcyte). KLK6 (5 nM) (prepared as in ref. 21) was incubated with test compounds for 30 min at room temperature in assay buffer (50 mM Tris, pH 7.5, 150 mM NaCl, 1 mM EDTA, 0.05 % tween 20, 0.1 % bovine serum albumin (BSA), 1 mM dithiothreitol (DTT)) before the reaction was started by addition of 20 μM Boc‐Phe‐Ser‐Arg‐AMC substrate (Bachem). Fluorescence intensity was read at ex/em 355/460 following incubation for 2 h in the dark at room temperature.
Assays using KLK7 and KLK8 (2B scientific) were conducted in the same manner as for KLK6 with the following exceptions. Both KLK7 and KLK8 required activation before assaying. KLK7 was combined with an equal volume of 20 μg/ml thermolysin (R&D systems) in activation buffer (50 mM Tris, pH 7.5, 10 mM CaCl2, 150 mM NaCl and 0.05 % Brij‐L23) and incubated at 37 °C for 2 h, the reaction was stopped with the addition of 100 mM EDTA in stop solution (50 mM Tris, 150 mM NaCl, pH 8.5). KLK8 was combined with an equal volume of 0.4 mU/mL lysyl endopeptidase (Alpha laboratories) in activation buffer (50 mM Tris, pH 8.0) and incubated at 37 °C for 30 min. Activated KLK7 (40 nM) and KLK8 (25 nM) were assayed with 40 μM Mca‐RPKPVE‐Nval‐WRK(Dnp)‐NH2 fluorogenic MMP substrate (R&D systems) and 25 μM Boc‐V‐P‐R‐AMC substrate (R&D systems), respectively.

Data set [1] is described as follows: Hepatocytes intrinsic clearance. It is filed as in vitro ADME. As to the method: Hepatocytes Intrinsic clearance (CLint) assay: Cryopreserved vials of mouse cryopreserved hepatocytes, supplied by Life Technologies, were thawed according to manufacturer's instructions and cells re‐suspended in Williams Medium E (WME) containing cell maintenance supplement pack (CM4000, Life Technologies). Hepatocytes were incubated in suspension (0.5x10^6 cells/mL) in 48 well non‐collagen coated cell culture plates for 10 min at 37 °C, 95 % O2 5 % CO2. Upon addition of an equal volume of supplemented WME containing 1 μM test compound, an aliquot of incubation solution was removed to acetonitrile containing internal standard (final concentration 0.5 μM test compound and a cell density of 0.25×10^6 cells/mL). Similarly, aliquots were removed at 3, 6, 9, 15, 30, 45, 60, 90 and 120 min. 100 μL of 80 : 20 H2O/MeCN was added to all samples and the analysis plate was centrifuged for 10 min at room temperature prior to injection and analysis of samples by UPLC‐MS/MS. The response (area ratio of test compound to internal standard) was plotted against time using an exponential decay model and rate of disappearance calculated. Hepatocyte CLint (mL/min/10^6 cells) was scaled to in vivo CLint (mL/min/g liver) using the hepatocellularity scaling factor of 120×10^6 cells/g of liver.

A further data set concerns the target T2, Human thrombin (Homo sapiens, UniProt P00734).
T2 construct: Human thrombin was purchased from Biopur; purchased Biopur
The experiment in a line: Thrombin enzyme inhibition assay. Format: biochemical. Conditions: read-out: Thrombin pIC50 (converted). Here is the method:
Human thrombin was purchased from Biopur. Human trypsin was purchased from Polymun Scientific. Human Factor Xa was purchased from Enzo Life Sciences. Thrombin (20 nM), trypsin (0.000015 %) or Factor Xa (10 nM) were assayed in a similar manner to the KLKs but were incubated with compound for 20 min at room temperature in assay buffer (50 mM Tris HCl, pH 7.6, 100 mM NaCl, 1 mg/ml CHAPS, 0.05 % bovine serum albumin (BSA), 1 mM dithiothreitol (DTT)) before the addition of 5 μM, 2.5 μM or 1.5 μM Rhodamine 110 substrate (Cambridge bioscience ltd) respectively. Fluorescence intensity was then read at ex/em 485/535 following incubation for 1 h at room temperature (thrombin and factor Xa) or 20 min (trypsin).

A short description of data set [2]: Microsomal intrinsic clearance, human microsomes. Format: in vitro ADME. As to the method: Immediately, at time zero, then at 3, 6, 9, 15 and 30 min an aliquot (50 μL) of the incubation mixture was removed and mixed with acetonitrile (100 μL) to stop the reaction. Internal standard was added to all samples, the samples centrifuged to sediment precipitated protein and the plates then sealed prior to UPLC‐MS/MS analysis using a Quattro Premier XE (Waters Corporation, USA). XLfit (IDBS, UK) was used to calculate the exponential decay and consequently the rate constant (k) from the ratio of peak area of test compound to internal standard at each timepoint. The rate of intrinsic clearance (CLint) of each test compound was then calculated using the following calculation: CLint (mL/min/g liver)=k×V×Microsomal protein yield. Where V (mL/mg protein) is the incubation volume/mg protein added and microsomal protein yield is taken as 52.5 mg protein/g liver. Verapamil (0.5 μM) was used as a positive control to confirm acceptable assay performance.

Another data set deals with KLK6 (Homo sapiens, UniProt Q92876). The experiment in a line: KLK6 enzymatic inhibition assay (fluorogenic Boc-Phe-Ser-Arg-AMC substrate). Format: biochemical. More on the design: made in house. Here is the method:
Using our previously published KLK6 assay format,21 we performed a HTS with the European Lead Factory (ELF),22 and tested ∼350,000 substances at 10 μM for their ability to reduce KLK6‐catalyzed hydrolysis of the fluorogenic Boc‐Phe‐Ser‐Arg‐AMC peptide.
High Throughput Screen: The European Lead Factory library of ∼350,000 compounds was used for high throughput screening at the Pivot Park Screening Center facilities in Oss, The Netherlands. […] For SPR, Biacore T200 was used and KLK6 was immobilized onto a CM5 chip. […] An 8 point 1 in 3 dilution series of 1 (50 μM to 0.02 μM) was also applied at the beginning and end of each screening day.
Enzyme inhibition assays: All chemicals were purchased from Sigma Aldrich (Gillingham, UK) unless otherwise stated.

Some results are limits rather than exact numbers.

KLK4, sequence (Q9Y5K2 31-254, species assumed): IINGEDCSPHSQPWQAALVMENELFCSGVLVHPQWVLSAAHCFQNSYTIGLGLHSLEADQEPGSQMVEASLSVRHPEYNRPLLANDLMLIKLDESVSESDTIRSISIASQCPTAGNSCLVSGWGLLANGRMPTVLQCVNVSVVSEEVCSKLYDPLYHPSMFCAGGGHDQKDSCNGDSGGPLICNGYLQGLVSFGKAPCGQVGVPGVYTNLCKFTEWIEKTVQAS
Method for in vitro: Plasma protein binding assay: Briefly, a 96 well equilibrium dialysis apparatus was used to determine the free fraction in plasma for each compound (HT Dialysis LLC, Gales Ferry, CT). Membranes (12–14 kDa cut‐off) were conditioned in deionized water for 60 minutes, followed by conditioning in 80 : 20 deionized water: ethanol for overnight at 4 °C and then rinsed in isotonic buffer before use. Female CD1 mouse plasma was removed from the freezer and allowed to thaw on the day of experiment. Thawed plasma was then centrifuged (Allegra X12‐R, Beckman Coulter, USA), spiked with test compound (final concentration 10 μg/mL), and 150 μL aliquots (n=6 replicate determinations) loaded into the 96‐well equilibrium dialysis plate. Dialysis vs isotonic buffer (150 μL) was carried out for 5 h in a temperature‐controlled incubator at 37 °C (Barworld scientific Ltd, UK) using an orbital microplate shaker at 100 rpm (Barworld scientific Ltd, UK). […] All samples were analyzed by UPLC‐MS/MS on a Quattro Premier XE Mass Spectrometer (Waters Corporation, USA). The unbound fraction was determined as the ratio of the peak area in buffer to that in plasma.

As a reminder, the fraction unbound is free concentration divided by total concentration. `CC[C@H](NC(=O)[C@H]1CN(c2ccc(C(=N)N)cc2)C(=O)O1)c1cccc2ccccc12` [Compound 32, (5R)‐3‐(4‐carbamimidoylphenyl)‐N‐((S)‐1‐(naphthalen‐1‐yl)propyl)‐2‐oxooxazolidine‐5‐carboxamide]: the fraction unbound at 5 h, 10 μg/mL in “in vitro” was 0.11. Also, the IC50 on KLK4 is 158 nM; on KLK7, > 20000 nM; at Human thrombin it was > 20000 nM; on KLK6 (synthesized inhibitors (Table 3), 8.6 = assay limit, read-out: KLK6 pIC50 (converted)) it was 2.51 nM. The “Mouse Hep Cl” value in data set [1] was 2.3 mL/min/g. In addition, the “Human CLint” value in data set [2] stood at 3.1 mL/min/g. Besides, at KLK6 (relative to 5), the “gain in potency for KLK6” value was ~100 fold.
